Read-outs that look alike come from different tables or passages of the source. Blank lines part the entries; values can stand above or below the molecule they belong to.
Columns and labels:
[1] = DOPE and DOPE/DOTMA solubility in ethanol (HPLC); format: physicochemical; details: for DOPE solubility in ethanol comprising 220 mM DOTMA, mM after Filtration: DOTMA/DOPE 66:33 in ethanol abs.
Method: DOPE and DOPE/DOTMA solubility in ethanol was investigated by preparing 300 mM DOPE or 330 mM DOPE/DOTMA (66:33) solutions in ethanol. The lipids were dissolved by incubating the lipid solutions at 37° C. for 20 minutes. The DOPE solutions were centrifuged at 17000 G for 1 h and the DOPE concentration was measured in the supernatant by HPLC. The DOTMA/DOPE solutions were filtered through a 0.22 μm PES syringe filter and the lipid concentration was measured in the filtrate by HPLC.
Lipid concentration in the different liposome formulations were measured by HPLC (Agilent technologies. Santa Clara. USA) using a Sunfire C18 2.5 μm 4.6×75 mm column (Waters, Massachusetts USA) and a wave length of 205 nm. Mobile phase A was a mixture of 70% methanol/30% isopropanol/0.1% TFA, mobile phase B was a mixture of 55% methanol/15% isopropanol/30% water/0.1% TFA. Liposomes samples were or not diluted with water to 3 mM total lipid concentration.
It has been tested if DOPE-containing solutions of higher concentration can be prepared (in the supersaturated state) and used for ethanol injection for liposome manufacturing (next section).

[2] = Freezing of RNA lipoplexes with cryoprotectants and NaCl, particle size; format: physicochemical; details: for preservation of particle size: single freezing step, 0 to 60 mM NaCl, 20% (w/v) cryoprotectant
Source text: Methods: Different compounds representative for monosaccharides (glucose and sorbitol), disaccharides (sucrose and trehalose), amino acids (arginine, prolin), triols (glycerin) as well as cryoprotectant systems containing mixtures of different sugars (mannitol and sucrose) were investigated in order to identify suited cryoprotectants (FIGS. 25 and 26). Therefore RNA lipoplexes were frozen in the presence of increasing concentration of these compounds. In order to identify minimum content of cryoprotectant at a certain concentration of NaCl, RNA lipoplexes were frozen in the presence of increasing amounts of sucrose or trehalose as representative cryoprotectants (Table 7). The samples were initially frozen a single time in order to determine the concentration range of cryoprotectant to be investigated in detail. In a third experiment, the efficacy of stabilization of the particle size was challenged by freezing of the RNA lipoplexes up to 10 times in the presence of the cryoprotectant trehalose (Table 8).

[3] = Buffer, pH, NaCl and sucrose stability studies at +25° C. and −15° C. (PCS, pH, capillary electrophoresis); details: for stability of the RNA in RNA lipoplexes: Example 2.1, accelerated conditions (25°); for preservation of the particle size and the polydispersity: Example 2.1, frozen state (−15° C.)
Method: RNA lipoplexes are incubated under accelerated conditions (25° C.) in the presence of an exemplarily cryoprotectant. RNA integrity was analyzed by capillary electrophoresis over 60 days. Additionally, RNA lipoplexes are incubated under at the anticipated storage conditions (−15° C.) in the presence of an exemplarily cryoprotectant for up to two years. RNA integrity was analyzed by capillary electrophoresis.
The respective RNA lipoplexes were investigated under accelerated conditions (25° C.) and in the frozen state (−15° C.).
RNA lipoplexes were formed with liposomes containing 2 mM of acetic acid. The respective RNA lipoplexes were investigated under accelerated conditions (25° C.) and in the frozen state (−15° C.).
Method: All RNA lipoplexes were automatically prepared in a single batch and the different concentrations of HEPES were adjusted by the addition of a cryoprotectant solution containing different amounts of HEPES. Particle sizes and polydispersity of RNA lipolexes were analyzed by photon correlation spectroscopy (PCS) measurements. Additionally, the RNA integrity was analyzed by capillary electrophoresis and the pH was measured.
In the following study, the concentration of HEPES which is required for stabilization of the pH of the RNA lipoplexes was investigated. RNA lipoplexes were formed with liposomes containing 5 mM of acetic acid and different concentrations of HEPES were adjusted by using different cryoprotectant solutions and the respective RNA lipoplexes were investigated under accelerated conditions (25° C.). The pH range from pH 6.2 to 7.2 was tested.
Methods: As a representative cryoprotectant, sucrose was investigated at a concentration of 10% (w/v). A detailed description of the experiments is given in section 2.
In the following study, the long-term stability of RNA lipoplexes in the frozen state was investigated with the combination of the reduced concentration of NaCl and Sucrose in the presence of either HEPES or Histidine as a buffering agent at a pH of 6.5.

[4] = RNA integrity of RNA lipoplexes under stress conditions (40° C.), capillary electrophoresis; details: 21 days, absence of cryoprotectant, by buffering system
Method: RNA lipoplexes are initially incubated under stress conditions (40° C.) in the absence of cryoprotectant. RNA integrity was analyzed by capillary electrophoresis over 21 days. In order to investigate the optimum pH range in the presence of an exemplary cryoprotectant, RNA lipoplexes were incubated in the presence of HEPES and sucrose at 40° C. and RNA integrity was analyzed for 21 days.
RNA integrity was analyzed as a key physicochemical parameter over 21 days.

[5] = Method: The samples were frozen at −30° C. and then transferred to the respective temperature for long-term storage (either −15 or −30° C.). After defined storage time, samples were analyzed and preservation of the colloidal stability was analyzed by measuring the particle size using PCS. These experiments were performed at a total RNA concentration of 0.05 mg/mL.
Method: To investigate the minimum content of representative cryoprotectants as sucrose, trehalose, glucose and mixtures including dextran required for long-term storage at −20° C., RNA lipoplexes were frozen at a fixed cryoprotectant content in combination with varying NaCl concentrations. For monomeric or dimeric molecular cryoprotectants as glucose, sucrose, and trehalose a concentration of 22% (w/v) was adjusted. These formulations were frozen and stored at −15 to −40° C. and long-term stability was investigated by measuring the particle size using PCS after defined storage time.
The samples were frozen and stored at −20° C. After defined storage time, samples were analyzed and preservation of the colloidal stability was analyzed by measuring the particle size.

[6] = compound tested as cryoprotectant
[7] = Example 2.2, accelerated conditions (25° C.)
[8] = Example 2.2, frozen state (−15° C.)
[9] = 70 mM NaCl, up to 10 times freezing

- DOPE solubility in ethanol comprising 220 mM DOTMA, mM after Filtration ([1]; Corden Pharma, F0624): 93 mM
- DOPE solubility in ethanol comprising 220 mM DOTMA, mM after Filtration ([1]; Corden Pharma, W0650): 106 mM
- DOPE solubility in ethanol comprising 220 mM DOTMA, mM after Filtration ([1]; Merck, MK2885-C): 94 mM
- DOPE solubility in ethanol comprising 220 mM DOTMA, mM after Filtration ([1]; NOF, 14099612): 103 mM
- DOPE solubility in ethanol ([1]; Provider Corden Pharma, Charge Nr. F0624): 56 mM
- DOPE solubility in ethanol ([1]; Provider Corden Pharma, Charge Nr. W0650): 59 mM
- DOPE solubility in ethanol ([1]; Provider Merck, Charge Nr. MK2885-C): 59 mM
- DOPE solubility in ethanol ([1]; Provider NOF, Charge Nr. 14099612): 63 mM
Structure (SMILES): CCCCCCCC/C=C\CCCCCCCC(=O)OC[C@H](COP(=O)(O)OCCN)OC(=O)CCCCCCC/C=C\CCCCCCCC [DOPE, 1,2-di-(9Z-octadecenoyl)-sn-glycero-3-phosphoethanolamine]

- stabilization of RNA lipoplexes during freezing [2, 6]: can be used as cryoprotectants
Structure (SMILES): OCC(O)CO [Glycerin, glycerin]

- HEPES concentration sufficient for stabilization of the adjusted pH ([3]; 25° C.): ≥ 2.5 mM
- stability of the RNA in RNA lipoplexes [3]: best stability
- preservation of the particle size and the polydispersity [3]: equally suited
- RNA integrity ([3]; Example 4.1, accelerated +25° C., vs current formulation 20 mM NaCl and 22% sucrose): better preserved
Structure (SMILES): O=S(=O)(O)CCN1CCN(CCO)CC1 [HEPES, 2-[4-(2-hydroxyethyl)piperazin-1-yl]ethanesulfonic acid]
- stabilization of the RNA integrity [3, 7]: comparable stabilization of the RNA integrity
- stabilization of the RNA integrity [3, 8]: comparable stabilization of the RNA integrity

- stability of the RNA in RNA lipoplexes [3]: lower stability
- preservation of the particle size and the polydispersity [3]: equally suited
- stabilization of the RNA integrity [3, 7]: slightly reduced stability
Structure (SMILES): N[C@@H](Cc1c[nH]cn1)C(=O)O [Histidine, histidine]
- stabilization of the RNA integrity [3, 8]: comparable stabilization of the RNA integrity

Structure (SMILES): O=S(=O)(O)CCN1CCOCC1 [MES, 2-(N-morpholino)ethanesulfonic acid]
- stabilization of the RNA integrity [3]: comparable stabilization of the RNA integrity

- stabilization of RNA lipoplexes during freezing [2, 6]: clearly destabilizes the RNA lipoplexes
Structure (SMILES): N=C(N)NCCC[C@H](N)C(=O)O [arginine]

Structure (SMILES): O=C([O-])[O-].[Na+].[Na+] [carbonate, sodium carbonate]
- stabilization of the RNA (RNA integrity) [4]: did not result in comparable stabilization of the RNA

- stabilization of RNA lipoplexes during freezing [2]: can be used as cryoprotectants
Structure (SMILES): O=C(O)[C@@H]1CCCN1 [proline]

Structure (SMILES): O=P(O)(O)O [sodium phosphate]
- stabilization of the RNA (RNA integrity) [4]: comparable results

- stabilization of RNA lipoplexes during freezing [2, 6]: can be used as cryoprotectants
- stabilization efficacy compared with the other cryoprotectants ([2]; freezing): lower
Structure (SMILES): OC[C@@H](O)[C@@H](O)[C@H](O)[C@@H](O)CO [sorbitol]

- stabilization efficacy between cryoprotectants [5]: No difference
- preservation of particle size [2]: acceptable preservation of particle size
Structure (SMILES): OC[C@H]1O[C@@](CO)(O[C@H]2O[C@H](CO)[C@@H](O)[C@H](O)[C@H]2O)[C@@H](O)[C@@H]1O [sucrose]

- stabilization efficacy between cryoprotectants [5]: No difference
- trehalose sufficient for stabilization of particle characteristics ([2]; 50 mM NaCl, even after 10 times freezing): ≥ 12.5%
- trehalose required for exact preservation of the particle size [2, 9]: ≥ 22.5%
- trehalose required for minimum stabilization [2, 9]: ≥ 12.5%
- exact preservation of the particle size ([2]; 90 mM NaCl, highest investigated concentration 27.5%): could not be achieved
- trehalose required for minimum stabilization ([2]; 90 mM NaCl, up to 10 times freezing): ≥ 15.0%
- preservation of particle size [2]: acceptable preservation of particle size
Structure (SMILES): OC[C@H]1O[C@H](O[C@H]2O[C@H](CO)[C@@H](O)[C@H](O)[C@H]2O)[C@H](O)[C@@H](O)[C@@H]1O [trehalose]
